From patent US20240382484A1, “COMPOSITION FOR TREATING, PREVENTING, OR AMELIORATING MELANOMA AND METHOD THEREOF” (Thomas Jefferson University, priority 2021, published 2024)

How the values were obtained:
[1] = system: WM1361A and WM1366 PDPK1-depleted clones; assay: Cell growth of PDPK1-depleted (sgRNA knockout) clones in response to MEKi; assay type: cell-based, human; conditions: for decrease of the half-maximum inhibitory concentration by PDPK1 depletion: WM1361A and WM1366, 5 days, PDPK1-depleted clones vs parental clone; for cell proliferation, MEKi combined with PDPK1 depletion: WM1361A and WM1366 KO1 and KO2 clones
Description: (§1) FIGS. 3A-3B: PDPK1 depletion by two individual sgRNAs in WM1361A (FIG. 3A) or WM1366 (FIG. 3B) cells were analyzed by immunoblot. FIGS. 3C-3D, Cell growth of WM1361A (FIG. 3C) or WM1366 (FIG. 3D) parental clones (Cas9) and PDPK1-depleted clones by two individual sgRNAs (KO1 and KO2) treated with vehicle (DMSO) or trametinib (Tram) was monitored by IncuCyte every 2 hours. Media were replaced twice with fresh drugs during culture. Data are represented as the mean±SEM of three biological independent experiments. p values were calculated with an unpaired two-tailed t test. n.s., not significant. FIGS. 3E-3F, Cellular growth in response to trametinib at the indicated doses for 5 days in WM1361A (FIG. 3E) or WM1366 (FIG. 3F) parental clone (iCas9) and PDPK1-depleted clones (KO1 and K02). Media were replaced once with drugs during culture. Data are represented as dots of three biological independent experiments. FIGS. 3G-3J, PDPK1 knockdown by ON-target control siRNAs and two individual siRNAs in SK-MEL-30 (FIG. 3G) or SK-MEL-173 cells (FIG. 3I) was analyzed by immunoblot. Cellular growth in response to trametinib at the indicated doses for 3 days in SK-MEL-30 (FIG. 3H) or SK-MEL-173 (FIG. 3J) control cells (siCtrl) and PDPK1-knockdown cells (siPDPK1s). Data are represented as dots of at least three biological independent experiments.
FIG. 12A-12B: Cell growth of WM1361A (FIG. 12A) or WM1366 (FIG. 12B) parental clone (Cas9) and PDPK1-depleted clones (KO1 and K02) treated with vehicle (DMSO) or PD0325901 (PD) was monitored by IncuCyte every 2 hours. Media were replaced twice with drugs during culture. Data are represented as the mean±SEM of three biological independent experiment. p values were calculated with an unpaired two-tailed t test. n.s., not significant. FIGS. 12C-12D, Cellular growth in response to PD0325901 at the indicated doses for 5 days in WM1361A (FIG. 12C) or WM1366 (FIG. 12D) parental clone (iCas9) and PDPK1-depleted clones (KO1 and K02). Media were replaced once with drugs during culture. Data are represented as dots of three biological independent experiments. FIG. 12E-12F, Cellular growth in response to PD0325901 at the indicated doses for 3 days in SK-MEL-30 (FIG. 12E) or SK-MEL-173 (FIG. 12F) control cells (siCtrl) and PDPK1-knockdown cells (siPDPK1s). Data are represented as dots of at least three biological independent experiments.
To test whether the synergistic effects of GSK2334470 was PDPK1-dependent, the present study generated PDPK1 knockout clones using high gene-editing efficiency clones of WM1361A and WM1366 cells. Depletion of PDPK1 by two different sgRNAs in both cell lines (FIGS. 3A-3B) attenuated cellular proliferation (FIGS. 3C-3D). […]

[2] = system: SK-MEL-30 and SK-MEL-173 PDPK1-knockdown cells; assay: Cellular growth of siRNA PDPK1-knockdown cells in response to MEKi; assay type: cell-based, human; conditions: SK-MEL-30 and SK-MEL-173, 3 days, siPDPK1 vs siCtrl
Description: as §1, with “Data are represented as dots of three biological independent experiments.” left out, “Cellular growth in response to trametinib at the indicated doses for 3 days in SK-MEL-30 (FIG. 3H) or SK-MEL-173 (FIG. 3J) control cells (siCtrl) and PDPK1-knockdown cells (siPDPK1s). Data are represented as dots of at least three biological independent experiments.” left out
FIG. 12A-12B: Cell growth of WM1361A (FIG. 12A) or WM1366 (FIG. 12B) parental clone (Cas9) and PDPK1-depleted clones (KO1 and K02) treated with vehicle (DMSO) or PD0325901 (PD) was monitored by IncuCyte every 2 hours. […] Data are represented as the mean±SEM of three biological independent experiment. p values were calculated with an unpaired two-tailed t test. n.s., not significant. […]

[3] = system: WM1361A, WM1366, SK-MEL-30 or SK-MEL-173 cells; assay: 7-day cell growth monitored by IncuCyte; assay type: cell-based, human; conditions: 7-day treatment course
Description: FIG. 2A: NRAS mutant melanoma cell line WM1361A, WM1366, SK-MEL-30, SK-MEL-173, 1007 and 1014 were treated for 72 hours as indicated with GSK2334470 and trametinib and analyzed for cell density by IncuCyte. Synergy graphs were generated utilizing Combenefit Software with Loewe method. Data are represented as the mean from three biological independent experiments. FIG. 2B: WM1361A, WM1366, SK-MEL-30 or SK-MEL-173 cells were treated with GSK2334470 (PDPK1i) and trametinib (tram) alone or in combination (comb) at the indicated concentrations for 7 days. Cell growth was monitored by IncuCyte every 2 hours. Media were replaced twice with drugs during culture. Data are represented as the mean±SEM of three biological independent experiments. p values were calculated with an unpaired two-tailed t test. n.s., not significant.
FIG. 11A: WM1361A, WM1366, SK-MEL-30 and SK-MEL-173 cells were treated for 72 hours as indicated with GSK2334470 and PD0325901 and analyzed for cell density by IncuCyte. […] Cell growth was monitored by IncuCyte every 2 hours. Data are represented as the mean±SEM of three biological independent experiments. p values were calculated with an unpaired two-tailed t test. n.s., not significant.
For cell proliferation and drug response, cells were monitored by IncuCyte® (Essen Bioscience, Ann Arbor, MI) every 2 hours.

[4] = system: Nras Q61K mouse melanoma isografts of 1014 cells; assay: 1014 allograft model in immunocompetent B6 mice; assay type: in vivo; conditions: trametinib chow and/or GSK2334470 injection three times per week

Row | SMILES | decrease of the half-maximum inhibitory concentration by PDPK1 depletion [1] | cell proliferation, MEKi combined with PDPK1 depletion [1] | half-maximum inhibitory concentration upon PDPK1 knockdown [2] | cell proliferation, MEKi combined with PDPK1i (GSK2334470) [3] | tumor growth [4]
1 | O=C(NOC[C@H](O)CO)c1ccc(F)c(F)c1Nc1ccc(I)cc1F [PD0325901, (R)—N-(2,3-dihydroxypropoxy)-3,4-difluoro-2-((2-fluoro-4-iodophenyl)amino)benzamide] | approximately 4 fold | effectively inhibited | decreased | profoundly inhibited | –
2 | CC(=O)Nc1cccc(-n2c(=O)n(C3CC3)c(=O)c3c(Nc4ccc(I)cc4F)n(C)c(=O)c(C)c32)c1 [trametinib, N-(3-(3-cyclopropyl-5-((2-fluoro-4-iodophenyl)amino)-6,8-dimethyl-2,4,7-trioxo-3,4,6,7-tetrahydropyrido[4,3-d]pyrimidin-1(2H)-yl)phenyl)acetamide] | approximately 4 fold | effectively inhibited | decreased | profoundly inhibited | modest delay of tumor growth
